Values of other authors in patent publication US20090196914A1, “LIPOSOMAL L-CARNITINE” (priority 2002, published 2009).

Details: oral drug

## CCC(=O)O[C@H](CC(=O)[O-])C[N+](C)(C)C [Propionyl-L-carnitine]
  bioavailability: 15%
